# Experimental data reported in ChEMBL document CHEMBL1255475, “Mutant prevention concentrations of four carbapenems against gram-negative rods” (2010).
# What was measured:
# [1] = test system: Escherichia coli; assay: Antibacterial activity against beta-lactamase-negative Escherichia coli E408 incubated up to 7 days by agar dilution method; format: functional; conditions: E408, 168 h
# [2] = test system: Escherichia coli; assay: Ratio of mutant prevention concentration to minimum Inhibitory concentration for beta-lactamase-negative Escherichia coli E345; format: functional
# [3] = test system: Escherichia coli; assay: Ratio of mutant prevention concentration to minimum Inhibitory concentration for beta-lactamase-negative Escherichia coli E350; format: functional
# [4] = test system: Escherichia coli; assay: Ratio of mutant prevention concentration to minimum Inhibitory concentration for beta-lactamase-negative Escherichia coli E408; format: functional
# [5] = test system: Escherichia coli; assay: Ratio of mutant prevention concentration to minimum Inhibitory concentration for beta-lactamase-negative Escherichia coli E409; format: functional
# [6] = test system: Escherichia coli; assay: Ratio of mutant prevention concentration to minimum Inhibitory concentration for beta-lactamase-positive ESBL-negative Escherichia coli E412; format: functional
# [7] = test system: Escherichia coli; assay: Ratio of mutant prevention concentration to minimum Inhibitory concentration for beta-lactamase-positive ESBL-positive Escherichia coli E456; format: functional
# [8] = test system: Klebsiella pneumoniae; assay: Ratio of mutant prevention concentration to minimum Inhibitory concentration for beta-lactamase-negative Klebsiella pneumoniae E358; format: functional
# [9] = test system: Klebsiella pneumoniae; assay: Ratio of mutant prevention concentration to minimum Inhibitory concentration for beta-lactamase-negative Klebsiella pneumoniae E359; format: functional
# [10] = test system: Klebsiella pneumoniae; assay: Ratio of mutant prevention concentration to minimum Inhibitory concentration for beta-lactamase-negative Klebsiella pneumoniae E419; format: functional
# [11] = test system: Klebsiella pneumoniae; assay: Ratio of mutant prevention concentration to minimum Inhibitory concentration for beta-lactamase-positive ESBL-negative Klebsiella pneumoniae E480; format: functional
# [12] = test system: Klebsiella pneumoniae; assay: Ratio of mutant prevention concentration to minimum Inhibitory concentration for beta-lactamase-positive ESBL-positive Klebsiella pneumoniae E453; format: functional
# [13] = test system: Klebsiella pneumoniae; assay: Ratio of mutant prevention concentration to minimum Inhibitory concentration for beta-lactamase-positive ESBL-negative Klebsiella pneumoniae E511; format: functional
# [14] = test system: Pseudomonas aeruginosa; assay: Antibacterial activity against Pseudomonas aeruginosa P337 incubated up to 7 days by agar dilution method; format: functional; conditions: P337, 168 h
# [15] = test system: Pseudomonas aeruginosa; assay: Ratio of mutant prevention concentration to minimum Inhibitory concentration for Pseudomonas aeruginosa P335; format: functional
# [16] = test system: Pseudomonas aeruginosa; assay: Ratio of mutant prevention concentration to minimum Inhibitory concentration for Pseudomonas aeruginosa P320; format: functional
# [17] = test system: Pseudomonas aeruginosa; assay: Ratio of mutant prevention concentration to minimum Inhibitory concentration for Pseudomonas aeruginosa P376; format: functional
# [18] = test system: Acinetobacter baumannii; assay: Ratio of mutant prevention concentration to minimum Inhibitory concentration for Acinetobacter baumannii A912; format: functional
# [19] = test system: Acinetobacter baumannii; assay: Ratio of mutant prevention concentration to minimum Inhibitory concentration for Acinetobacter baumannii A908; format: functional
# [20] = test system: Acinetobacter baumannii; assay: Ratio of mutant prevention concentration to minimum Inhibitory concentration for Acinetobacter baumannii A891; format: functional
# [21] = test system: Acinetobacter baumannii; assay: Ratio of mutant prevention concentration to minimum Inhibitory concentration for Acinetobacter baumannii A894; format: functional
# [22] = test system: Acinetobacter baumannii; assay: Antibacterial activity against Acinetobacter baumannii A864 assessed as mutant prevention concentration after overnight incubation; format: functional
# [23] = test system: Pseudomonas aeruginosa; assay: Antibacterial activity against Pseudomonas aeruginosa P358 incubated up to 7 days by agar dilution method; format: functional; conditions: P358, 168 h
# [24] = test system: Acinetobacter baumannii; assay: Antibacterial activity against Acinetobacter baumannii A851 incubated for 24 h by agar dilution method; conditions: A851, 24 h
# [25] = test system: Acinetobacter baumannii; assay: Antibacterial activity against Acinetobacter baumannii A912 incubated for 24 h by agar dilution method; conditions: A912, 24 h
# [26] = test system: Acinetobacter baumannii; assay: Antibacterial activity against Acinetobacter baumannii A928 after 24 hrs by agar dilution method; format: functional; conditions: A928, 24 h
# [27] = test system: Acinetobacter baumannii; assay: Antibacterial activity against Acinetobacter baumannii A931 after 24 hrs by agar dilution method; format: functional; conditions: A931, 24 h
# [28] = test system: Acinetobacter baumannii; assay: Antibacterial activity against Acinetobacter baumannii A897 after 24 hrs by agar dilution method; format: functional; conditions: A897, 24 h
# [29] = test system: Acinetobacter baumannii; assay: Antibacterial activity against Acinetobacter baumannii A929 after 24 hrs by agar dilution method; format: functional; conditions: A929, 24 h
# [30] = test system: Acinetobacter baumannii; assay: Antibacterial activity against Acinetobacter baumannii A890 after 24 hrs by agar dilution method; format: functional; conditions: A890, 24 h
# [31] = test system: Acinetobacter baumannii; assay: Antibacterial activity against Acinetobacter baumannii A901 after 24 hrs by agar dilution method; format: functional; conditions: A901, 24 h
# [32] = test system: Escherichia coli; assay: Antibacterial activity against beta-lactamase-negative Escherichia coli E344 after 24 hrs by agar dilution method; conditions: E344, 24 h
# [33] = test system: Escherichia coli; assay: Antibacterial activity against beta-lactamase-negative Escherichia coli E347 after 24 hrs by agar dilution method; conditions: E347, 24 h
# [34] = test system: Escherichia coli; assay: Antibacterial activity against beta-lactamase-negative Escherichia coli E350 after 24 hrs by agar dilution method; conditions: E350, 24 h
# [35] = test system: Escherichia coli; assay: Antibacterial activity against beta-lactamase-positive ESBL-negative Escherichia coli E412 after 24 hrs by agar dilution method; conditions: E412, 24 h
# [36] = test system: Escherichia coli; assay: Antibacterial activity against beta-lactamase-positive ESBL-positive Escherichia coli E452 after 24 hrs by agar dilution method; conditions: E452, 24 h
# [37] = test system: Escherichia coli; assay: Antibacterial activity against beta-lactamase-positive ESBL-negative Escherichia coli E483 after 24 hrs by agar dilution method; conditions: E483, 24 h
# [38] = test system: Escherichia coli; assay: Antibacterial activity against beta-lactamase-positive ESBL-negative Escherichia coli E484 after 24 hrs by agar dilution method; format: functional; conditions: E484, 24 h
# [39] = test system: Klebsiella pneumoniae; assay: Antibacterial activity against beta-lactamase-negative Klebsiella pneumoniae E361 after 24 hrs by agar dilution method; format: functional; conditions: E361, 24 h
# [40] = test system: Klebsiella pneumoniae; assay: Antibacterial activity against beta-lactamase-positive ESBL-negative Klebsiella pneumoniae E509 after 24 hrs by agar dilution method; format: functional; conditions: E509, 24 h
# [41] = test system: Klebsiella pneumoniae; assay: Antibacterial activity against beta-lactamase-positive ESBL-negative Klebsiella pneumoniae E472 after 24 hrs by agar dilution method; format: functional; conditions: E472, 24 h
# [42] = test system: Klebsiella pneumoniae; assay: Antibacterial activity against beta-lactamase-positive ESBL-positive Klebsiella pneumoniae E457 after 24 hrs by agar dilution method; format: functional; conditions: E457, 24 h
# [43] = test system: Klebsiella pneumoniae; assay: Antibacterial activity against beta-lactamase-positive ESBL-negative Klebsiella pneumoniae E507 after 24 hrs by agar dilution method; format: functional; conditions: E507, 24 h
# [44] = test system: Pseudomonas aeruginosa; assay: Antibacterial activity against Pseudomonas aeruginosa P332 after 24 hrs by agar dilution method; conditions: P332, 24 h
# [45] = test system: Pseudomonas aeruginosa; assay: Antibacterial activity against Pseudomonas aeruginosa P320 after 24 hrs by agar dilution method; conditions: P320, 24 h
# [46] = test system: Pseudomonas aeruginosa; assay: Antibacterial activity against Pseudomonas aeruginosa P340 after 24 hrs by agar dilution method; conditions: P340, 24 h
# [47] = test system: Acinetobacter baumannii; assay: Antibacterial activity against Acinetobacter baumannii A864 after 24 hrs by agar dilution method; format: functional; conditions: A864, 24 h
# [48] = test system: Acinetobacter baumannii; assay: Antibacterial activity against Acinetobacter baumannii A865 after 24 hrs by agar dilution method; format: functional; conditions: A865, 24 h
# [49] = test system: Acinetobacter baumannii; assay: Antibacterial activity against Acinetobacter baumannii A851 after 24 hrs by agar dilution method; format: functional; conditions: A851, 24 h
# [50] = test system: Acinetobacter baumannii; assay: Antibacterial activity against Acinetobacter baumannii A911 after 24 hrs by agar dilution method; format: functional; conditions: A911, 24 h
# [51] = test system: Acinetobacter baumannii; assay: Antibacterial activity against Acinetobacter baumannii A912 after 24 hrs by agar dilution method; format: functional; conditions: A912, 24 h
# [52] = test system: Acinetobacter baumannii; assay: Antibacterial activity against Acinetobacter baumannii A896 after 24 hrs by agar dilution method; format: functional; conditions: A896, 24 h
compound,measurement,setting,value
C[C@@H](O)[C@H]1C(=O)N2C(C(=O)O)=C(S[C@@H]3CN[C@H](C(=O)Nc4cccc(C(=O)O)c4)C3)[C@H](C)[C@H]12,MIC,[1],0.016 µg/mL
same,Ratio,[2],4
same,Ratio,[3],2
same,Ratio,[4],4
same,Ratio,[5],8
same,Ratio,[6],16
same,Ratio,[7],16
same,Ratio,[8],4
same,Ratio,[9],2
same,Ratio,[10],2
same,Ratio,[11],4
same,Ratio,[12],2
same,Ratio,[13],8
C[C@@H](O)[C@H]1C(=O)N2C(C(=O)O)=C(S[C@@H]3CN[C@H](CNS(N)(=O)=O)C3)[C@H](C)[C@H]12 [DORIPENEM],MIC,[14],1 µg/mL
same,MIC,[1],0.03 µg/mL
same,Ratio,[2],2
same,Ratio,[3],2
same,Ratio,[4],2
same,Ratio,[15],8
same,Ratio,[16],>8
same,Ratio,[17],>16
same,Ratio,[18],2
same,Ratio,[19],2
same,Ratio,[20],4
same,Ratio,[21],4
same,MPC,[22],64 µg/mL
same,Ratio,[5],4
same,Ratio,[6],4
same,Ratio,[7],8
same,Ratio,[8],2
same,Ratio,[9],2
same,Ratio,[10],2
same,Ratio,[11],4
same,Ratio,[12],2
same,Ratio,[13],>16
same,MIC,[23],8 µg/mL
same,MIC,[24],4 µg/mL
same,MIC,[25],4 µg/mL
C[C@@H](O)[C@H]1C(=O)N2C(C(=O)O)=C(SCCNC=N)C[C@H]12 [IMIPENEM ANHYDROUS],MIC,[26],0.5 µg/mL
same,MIC,[27],0.5 µg/mL
same,MIC,[28],0.5 µg/mL
same,MIC,[29],0.5 µg/mL
same,MIC,[30],0.5 µg/mL
same,MIC,[31],2 µg/mL
same,MIC,[32],0.125 µg/mL
same,MIC,[33],0.25 µg/mL
same,MIC,[34],0.5 µg/mL
same,MIC,[35],0.25 µg/mL
same,MIC,[36],0.125 µg/mL
same,MPC,[22],64 µg/mL
same,MIC,[37],1 µg/mL
same,MIC,[38],4 µg/mL
same,MIC,[39],0.5 µg/mL
same,MIC,[40],8 µg/mL
same,MIC,[41],8 µg/mL
same,MIC,[42],0.25 µg/mL
same,MIC,[43],2 µg/mL
same,MIC,[44],1 µg/mL
same,MIC,[45],2 µg/mL
same,MIC,[46],0.5 µg/mL
same,MIC,[47],8 µg/mL
same,MIC,[48],8 µg/mL
same,MIC,[49],2 µg/mL
same,MIC,[50],2 µg/mL
same,MIC,[51],2 µg/mL
same,MIC,[52],0.25 µg/mL
C[C@@H](O)[C@H]1C(=O)N2C(C(=O)O)=C(S[C@@H]3CN[C@H](C(=O)N(C)C)C3)[C@H](C)[C@H]12 [MEROPENEM],MIC,[14],1 µg/mL
same,MIC,[23],8 µg/mL
same,MIC,[24],4 µg/mL
same,MIC,[25],2 µg/mL
